Laboratory results taken from ChEMBL document CHEMBL5576083, “Structure-Based Design and Synthesis of Covalent Inhibitors for Deubiquitinase and Acetyltransferase ChlaDUB1 of Chlamydia trachomatis” (J Med Chem, 2024).
Activity calls are given as the source filed them. No cut-off for these calls is given here.

What was measured:
[1] = Covalent inhibition of C-terminal 6His-tagged Chlamydia trachomatis DUB1 (130 to 401 residues) expressed in Escherichia coli Rosetta 2 (DE3) cells using Ub-Rh110Gly as fluorogenic substrate preincubated for 1 hr followed by substrate addition by plate reader analysis
Chlamydia trachomatis [2] = experiment: Antimicrobial activity against Chlamydia trachomatis serovar L2 infected in human HeLa cells assessed as reduction in microbial progeny at 12.5 ug/ml measured after 24 hrs of post-infection by immunofluorescence analysis; type: functional; parameters: scale not given: the % may be the effect or the level left; conditions: dose 12.5 µg/ml
[3] = Binding affinity to C-terminal 6His-tagged Chlamydia trachomatis DUB1 (130 to 401 residues) expressed in Escherichia coli Rosetta 2 (DE3) cells using Ub-Rh110Gly as fluorogenic substrate assessed as inhibition constant preincubated for 60 mins followed by substrate addition measured after 360 mins by plate reader analysis
Chlamydia trachomatis [4] = experiment: Inhibition of C-terminal 6His-tagged Chlamydia trachomatis DUB1 (130 to 401 residues) expressed in Escherichia coli Rosetta 2 (DE3) cells using Ub-Rh110Gly as fluorogenic substrate at 40 uM preincubated for 1 hr followed by substrate addition by plate reader analysis
[5] = target: Ubiquitin carboxyl-terminal hydrolase isozyme L1 (Homo sapiens) (UniProt P09936); experiment: Inhibition of 6His-tagged human UCHL1 using Ub-Rh110Gly as fluorogenic substrate at 40 uM preincubated for 1 hr followed by substrate addition by plate reader analysis
[6] = target: T1, Ubiquitin carboxyl-terminal hydrolase 25 (Homo sapiens) (UniProt Q9UHP3); experiment: Inhibition of human USP25 (765 to 1055 residues) expressed in Escherichia coli Rosetta 2 (DE3) cells using Ub-Rh110Gly as fluorogenic substrate at 40 uM preincubated for 1 hr followed by substrate addition by plate reader analysis
T1 sequence (whole entry): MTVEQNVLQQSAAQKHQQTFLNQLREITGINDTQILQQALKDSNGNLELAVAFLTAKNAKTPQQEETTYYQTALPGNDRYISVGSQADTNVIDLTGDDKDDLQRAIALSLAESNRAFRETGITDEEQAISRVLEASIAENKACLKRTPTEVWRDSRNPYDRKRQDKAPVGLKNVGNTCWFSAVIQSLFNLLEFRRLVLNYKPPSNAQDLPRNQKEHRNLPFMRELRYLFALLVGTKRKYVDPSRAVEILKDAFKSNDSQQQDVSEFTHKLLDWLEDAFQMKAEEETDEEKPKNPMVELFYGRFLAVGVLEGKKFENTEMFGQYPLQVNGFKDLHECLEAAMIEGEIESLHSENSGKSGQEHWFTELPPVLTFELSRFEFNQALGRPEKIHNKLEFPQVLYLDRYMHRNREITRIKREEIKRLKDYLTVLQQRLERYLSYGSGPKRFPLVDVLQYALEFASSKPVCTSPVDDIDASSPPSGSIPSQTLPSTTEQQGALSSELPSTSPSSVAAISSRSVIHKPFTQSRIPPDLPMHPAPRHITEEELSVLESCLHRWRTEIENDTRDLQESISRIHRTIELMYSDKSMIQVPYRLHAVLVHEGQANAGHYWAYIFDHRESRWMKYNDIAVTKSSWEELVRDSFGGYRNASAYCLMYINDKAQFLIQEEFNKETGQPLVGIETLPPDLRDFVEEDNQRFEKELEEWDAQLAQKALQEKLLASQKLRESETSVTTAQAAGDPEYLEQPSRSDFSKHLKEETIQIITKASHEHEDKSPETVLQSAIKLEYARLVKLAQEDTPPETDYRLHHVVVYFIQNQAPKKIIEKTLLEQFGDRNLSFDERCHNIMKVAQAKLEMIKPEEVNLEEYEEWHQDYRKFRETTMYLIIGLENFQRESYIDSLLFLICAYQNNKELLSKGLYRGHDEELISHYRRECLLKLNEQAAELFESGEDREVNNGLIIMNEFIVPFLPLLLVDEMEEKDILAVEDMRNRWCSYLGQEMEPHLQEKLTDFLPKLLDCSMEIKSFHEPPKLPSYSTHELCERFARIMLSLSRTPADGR

Chlamydia trachomatis [7] = experiment: Antimicrobial activity against Chlamydia trachomatis serovar L2 infected in human HeLa cells assessed as reduction in microbial progeny at 3.13 ug/ml measured after 24 hrs of post-infection by immunofluorescence analysis; type: functional; parameters: scale not given: the % may be the effect or the level left; conditions: dose 3.13 µg/ml
Chlamydia trachomatis [8] = experiment: Antimicrobial activity against Chlamydia trachomatis serovar L2 infected in human HeLa cells assessed as reduction in inclusion area at 12.5 ug/ml measured after 24 hrs of post-infection by microscopic analysis; type: functional; conditions: dose 12.5 µg/ml
[9] = Inhibition of Chlamydia trachomatis DUB2 expressed in Escherichia coli Rosetta 2 (DE3) cells using Ub-Rh110Gly as fluorogenic substrate preincubated for 1 hr followed by substrate addition by plate reader analysis
HEp-2 = experiment: Cytotoxicity against human HEp-2 cells at 4 to 128 ug/ml incubated for 20 hrs by […] assay; type: toxicity, cell-based; conditions: hep-2, 20 h, dose 4-128 µg/ml
Chlamydia trachomatis [10] = experiment: Antimicrobial activity against Chlamydia trachomatis serovar L2 infected in human HeLa cells assessed as inclusion forming unit at 1.56 to 6.25 ug/ml measured after 24 hrs of post-infection by immunofluorescence based microscopic analysis; type: functional; conditions: dose 1.56-6.25 µg/ml
Chlamydia trachomatis [11] = experiment: Antimicrobial activity against Chlamydia trachomatis serovar L2 infected in human HeLa cells assessed as reduction in microbial progeny at 3.13 ug/ml measured after 48 hrs of post-infection by immunofluorescence analysis; type: functional; parameters: scale not given: the % may be the effect or the level left; conditions: dose 3.13 µg/ml
[12] = target: Ubiquitin carboxyl-terminal hydrolase 14 (Homo sapiens) (UniProt P54578); experiment: Inhibition of human USP14 using Ub-Rh110Gly as fluorogenic substrate at 40 uM preincubated for 1 hr followed by substrate addition by plate reader analysis
[13] = target: Ubiquitin carboxyl-terminal hydrolase 7 (Homo sapiens) (UniProt Q93009); experiment: Inhibition of 6His-tagged human USP7 using Ub-Rh110Gly as fluorogenic substrate at 40 uM preincubated for 1 hr followed by substrate addition by plate reader analysis
[14] = target: T2, Ubiquitin carboxyl-terminal hydrolase isozyme L1 (Homo sapiens, UniProt P09936); experiment: Inhibition of 6His-tagged human UCHL1 using Ub-Rh110Gly as fluorogenic substrate preincubated for 1 hr followed by substrate addition by plate reader analysis
T2 sequence (P09936 whole entry): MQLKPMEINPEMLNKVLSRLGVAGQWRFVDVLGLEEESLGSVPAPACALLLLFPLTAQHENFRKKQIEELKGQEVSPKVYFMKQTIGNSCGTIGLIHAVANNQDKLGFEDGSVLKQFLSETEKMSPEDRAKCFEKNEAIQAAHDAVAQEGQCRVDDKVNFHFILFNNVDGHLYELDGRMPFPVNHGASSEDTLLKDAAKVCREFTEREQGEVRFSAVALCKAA

Chain of Ubiquitin carboxyl-terminal hydrolase 14 (Homo sapiens) (P54578 whole entry): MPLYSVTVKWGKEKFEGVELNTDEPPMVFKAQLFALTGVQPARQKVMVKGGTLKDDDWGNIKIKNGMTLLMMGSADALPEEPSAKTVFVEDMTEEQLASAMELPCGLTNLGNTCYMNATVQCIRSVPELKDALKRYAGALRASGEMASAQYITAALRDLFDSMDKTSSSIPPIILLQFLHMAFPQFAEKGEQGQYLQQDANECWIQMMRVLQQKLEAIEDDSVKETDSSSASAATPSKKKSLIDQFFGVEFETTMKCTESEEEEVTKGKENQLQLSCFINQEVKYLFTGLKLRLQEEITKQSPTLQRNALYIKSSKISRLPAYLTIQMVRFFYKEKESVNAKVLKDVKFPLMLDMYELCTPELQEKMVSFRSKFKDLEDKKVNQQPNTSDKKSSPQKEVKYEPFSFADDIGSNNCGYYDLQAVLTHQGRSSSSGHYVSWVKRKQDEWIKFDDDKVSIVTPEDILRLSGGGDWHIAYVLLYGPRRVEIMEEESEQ
Chain of Ubiquitin carboxyl-terminal hydrolase 7 (Homo sapiens) (Q93009 whole entry, looked up): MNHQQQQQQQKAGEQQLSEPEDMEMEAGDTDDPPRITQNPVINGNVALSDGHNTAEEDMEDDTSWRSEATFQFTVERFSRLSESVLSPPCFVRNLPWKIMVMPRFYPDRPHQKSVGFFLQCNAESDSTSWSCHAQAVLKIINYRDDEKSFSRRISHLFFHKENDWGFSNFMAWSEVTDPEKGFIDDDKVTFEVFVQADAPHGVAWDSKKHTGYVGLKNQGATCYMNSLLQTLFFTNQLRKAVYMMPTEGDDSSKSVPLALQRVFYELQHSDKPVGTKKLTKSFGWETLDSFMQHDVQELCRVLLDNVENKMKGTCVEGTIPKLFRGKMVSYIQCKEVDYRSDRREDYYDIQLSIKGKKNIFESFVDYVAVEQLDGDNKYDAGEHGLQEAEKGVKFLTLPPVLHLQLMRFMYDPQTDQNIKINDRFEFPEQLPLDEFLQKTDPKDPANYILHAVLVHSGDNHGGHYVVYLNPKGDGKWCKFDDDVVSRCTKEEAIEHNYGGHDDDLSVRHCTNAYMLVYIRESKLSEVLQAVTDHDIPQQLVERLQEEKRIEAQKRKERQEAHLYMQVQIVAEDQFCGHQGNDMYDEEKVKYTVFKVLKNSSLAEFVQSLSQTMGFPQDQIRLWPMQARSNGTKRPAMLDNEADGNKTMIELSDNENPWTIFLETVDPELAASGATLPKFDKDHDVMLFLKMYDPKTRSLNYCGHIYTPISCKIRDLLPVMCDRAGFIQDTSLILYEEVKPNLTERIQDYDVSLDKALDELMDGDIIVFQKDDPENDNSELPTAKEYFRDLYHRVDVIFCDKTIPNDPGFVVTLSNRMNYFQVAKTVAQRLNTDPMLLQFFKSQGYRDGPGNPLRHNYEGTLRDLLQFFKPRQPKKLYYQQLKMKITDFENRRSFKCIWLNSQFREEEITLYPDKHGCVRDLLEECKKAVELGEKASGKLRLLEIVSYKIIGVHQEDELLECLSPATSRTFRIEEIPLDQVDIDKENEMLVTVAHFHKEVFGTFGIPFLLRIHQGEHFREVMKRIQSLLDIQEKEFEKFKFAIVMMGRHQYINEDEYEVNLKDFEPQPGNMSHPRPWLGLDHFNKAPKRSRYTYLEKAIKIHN

IC50 [1]: 7.7 µM
pIC50 [1]: 5.11
inhibition [5]: Active
inhibition [6]: inactive
IC50 [9]: 15.7 µM
inhibition [12]: inactive
inhibition [13]: inactive
IC50 [14]: 4.2 µM
Compound: N#Cc1ncc(C(=O)NCc2ccc(C(=O)NC34CC5CC(CC(C5)C3)C4)cc2)cn1
Activity (Chlamydia trachomatis [2]): 80%
Ki [3]: 120 µM
inhibition (Chlamydia trachomatis [4]): Active
Activity (Chlamydia trachomatis [7]): 45.5%
Activity (Chlamydia trachomatis [8]): 15.38 um2
Activity (HEp-2): Toxic
Activity (Chlamydia trachomatis [10]): 1.075 10^7IFU/ml
Activity (Chlamydia trachomatis [11]): 11%
